Laboratory results from PubChem BioAssay AID248 (DTP/NCI, 2004).
“And” between values parts separate entries of the source, which are not always exact repeats. Equal entries are not always repeated. Inconclusive results and toxic doses are left out. Rule as the data show it: active = T/C of 150% or more; inactive = T/C below 125%.

System: L1210 leukemia ip in BDF1 mice, survival T/C
Test: NCI In Vivo Anticancer Drug Screen. Data for tumor model L1210 Leukemia (intraperitoneal) in B6D2F1 (BDF1) mice
Details: endpoint: mean survival time, higher = longer survival
Summary of the method: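 Transplantable tumor model; survival measured in treated vs vehicle control mice. Value = treated/control.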

[1] = dose: 100.0 mg/kg/injection, schedule: Q04DX003 (ip), vehicle: saline
[2] = dose: 200.0 mg/kg/injection, schedule: Q04DX003 (ip), vehicle: saline
[3] = dose: 100.0 mg/kg/injection, schedule: Q01DX001 (ip), vehicle: carboxymethylcellulose (CMC)
[4] = dose: 200.0 mg/kg/injection, schedule: Q01DX001 (ip), vehicle: carboxymethylcellulose (CMC)
[5] = dose: 400.0 mg/kg/injection, schedule: Q01DX001 (ip), vehicle: carboxymethylcellulose (CMC)
[6] = dose: 100.0 mg/kg/injection, schedule: Q01DX001 (ip), vehicle: saline
[7] = dose: 200.0 mg/kg/injection, schedule: Q01DX001 (ip), vehicle: saline
[8] = dose: 400.0 mg/kg/injection, schedule: Q01DX001 (ip), vehicle: saline
[9] = dose: 50.0 mg/kg/injection, schedule: Q01DX009 (ip), vehicle: saline with Tween-80
[10] = dose: 100.0 mg/kg/injection, schedule: Q01DX009 (ip), vehicle: saline with Tween-80
[11] = dose: 100.0 mg/kg/injection, schedule: Q01DX001 (ip), vehicle: Klucel (hydroxypropylcellulose) (HPC)
[12] = dose: 200.0 mg/kg/injection, schedule: Q01DX001 (ip), vehicle: Klucel (hydroxypropylcellulose) (HPC)
[13] = dose: 400.0 mg/kg/injection, schedule: Q01DX001 (ip), vehicle: Klucel (hydroxypropylcellulose) (HPC)
[14] = dose: 100.0 mg/kg/injection, schedule: Q04DX002 (ip), vehicle: Klucel (hydroxypropylcellulose) (HPC)
[15] = dose: 100.0 mg/kg/injection, schedule: Q04DX003 (ip), vehicle: saline with Tween-80
[16] = dose: 200.0 mg/kg/injection, schedule: Q01DX009 (ip), vehicle: saline with Tween-80
[17] = dose: 200.0 mg/kg/injection, schedule: Q04DX003 (ip), vehicle: saline with Tween-80
[18] = dose: 400.0 mg/kg/injection, schedule: Q01DX009 (ip), vehicle: saline with Tween-80
[19] = dose: 400.0 mg/kg/injection, schedule: Q04DX003 (ip), vehicle: saline with Tween-80
[20] = dose: 50.0 mg/kg/injection, schedule: Q04DX003 (ip), vehicle: Klucel (hydroxypropylcellulose) (HPC)
[21] = dose: 100.0 mg/kg/injection, schedule: Q04DX003 (ip), vehicle: Klucel (hydroxypropylcellulose) (HPC)
[22] = dose: 200.0 mg/kg/injection, schedule: Q04DX003 (ip), vehicle: Klucel (hydroxypropylcellulose) (HPC)
[23] = dose: 100.0 mg/kg/injection, schedule: Q04DX002 (ip), vehicle: saline with Tween-80
[24] = dose: 200.0 mg/kg/injection, schedule: Q04DX002 (ip), vehicle: saline with Tween-80
[25] = dose: 400.0 mg/kg/injection, schedule: Q04DX003 (ip), vehicle: saline

Measured: T/C

CCCCN(CCCC)CCCC#N
inactive: dose: 25.0 mg/kg/injection, schedule: Q01DX009 (ip), vehicle: saline 105 % of control | dose: 25.0 mg/kg/injection, schedule: Q04DX003 (ip), vehicle: saline 106 % of control | dose: 50.0 mg/kg/injection, schedule: Q01DX009 (ip), vehicle: saline 103 % of control | dose: 50.0 mg/kg/injection, schedule: Q04DX003 (ip), vehicle: saline 100 % of control | dose: 100.0 mg/kg/injection, schedule: Q01DX009 (ip), vehicle: saline 100 % of control | [1] 103 % of control and 105 % of control

O=NN(CS(=O)(=O)O)c1ccccc1
inactive: [1] 98 % of control | [2] 103 % of control

Cc1nc2ccccc2nc1N1CCCC1
inactive: dose: 111.0 mg/kg/injection, schedule: Q01DX Z (ip), vehicle: methylcellulose (MC) 101 % of control | dose: 166.0 mg/kg/injection, schedule: Q01DX Z (ip), vehicle: methylcellulose (MC) 92 % of control | dose: 250.0 mg/kg/injection, schedule: Q01DX Z (ip), vehicle: methylcellulose (MC) 114 % of control

CSc1nnc2sc(C)nn12
inactive: [3] 104 % of control | [4] 104 % of control | [5] 102 % of control

CC1(C)CCC(C)(C)C2CC3CC4C(CC3CC21)C(C)(C)CCC4(C)C (centres undefined)
inactive: [6] 89 % of control | [7] 104 % of control | [8] 97 % of control

OC(C/C=C/c1ccccc1)c1ccccc1 (centres undefined)
inactive: dose: 50.0 mg/kg/injection, schedule: Q01DX009 (ip), vehicle: Klucel (hydroxypropylcellulose) (HPC) 91 % of control | dose: 100.0 mg/kg/injection, schedule: Q01DX009 (ip), vehicle: Klucel (hydroxypropylcellulose) (HPC) 97 % of control

CCCN(CCC)CC(C)(C)CO
inactive: [9] 96 % of control | [10] 101 % of control

O=C(O)C(=O)NCc1cnccn1
inactive: dose: 25.0 mg/kg/injection, schedule: Q01DX009 (ip), vehicle: water 96 % of control | dose: 50.0 mg/kg/injection, schedule: Q01DX009 (ip), vehicle: water 97 % of control | dose: 100.0 mg/kg/injection, schedule: Q04DX003 (ip), vehicle: water 96 % of control

Oc1c(Br)cc(Br)cc1/C=N/c1nc(-c2ccccc2)cs1.Oc1c(Br)cc(Br)cc1/C=N/c1nc(-c2ccccc2)cs1.[Co]
inactive: [6] 93 % of control | [8] 86 % of control

COC(=O)c1ccccc1Cc1cccc2c(Cl)cccc12
inactive: [11] 97 % of control | [12] 98 % of control | [13] 106 % of control

O=[N+]([O-])c1c(Cl)cc(Cl)c([N+](=O)[O-])c1-c1ccccc1
inactive: [3] 96 % of control | [4] 96 % of control | [5] 107 % of control

CCOC(=O)CCCN(c1ccc(OC)c(OC)c1)S(=O)(=O)c1ccc(C)cc1
inactive: [3] 97 % of control | [4] 105 % of control | [5] 94 % of control

OCC1OC(n2c3ccccc3c3ccccc32)C(O)C1O (centres undefined)
inactive: dose: 60.0 mg/kg/injection, schedule: Q04DX002 (ip), vehicle: DMSO 97 % of control | dose: 120.0 mg/kg/injection, schedule: Q04DX002 (ip), vehicle: DMSO 102 % of control

COC(=O)c1cccc(Cl)c1-c1c(Cl)cccc1C(=O)OC
inactive: [14] 96 % of control | dose: 200.0 mg/kg/injection, schedule: Q04DX002 (ip), vehicle: Klucel (hydroxypropylcellulose) (HPC) 108 % of control | dose: 400.0 mg/kg/injection, schedule: Q04DX002 (ip), vehicle: Klucel (hydroxypropylcellulose) (HPC) 92 % of control

c1ccc2cc(CCSSCCc3ccc4ccccc4c3)ccc2c1
inactive: [7] 87 % of control

CC(C)=CCC/C(C)=C/CN1C(=O)CC(C)=C(C)C1=O
inactive: [10] 97 % of control | [15] 95 % of control | [16] 95 % of control | [17] 104 % of control | [18] 95 % of control | [19] 95 % of control

Nc1cccc2c1C(O)c1ccccc1-2 (centres undefined)
inactive: [15] 101 % of control | [17] 97 % of control | [19] 101 % of control

Cc1n[nH]c(=S)nc1C
inactive: dose: 50.0 mg/kg/injection, schedule: Q01DX001 (ip), vehicle: saline 96 % of control | [20] 96 % of control | [6] 102 % of control | [21] 96 % of control | [7] 93 % of control | [22] 91 % of control

CN(C)C=Nc1cccc2cn[nH]c12
inactive: [23] 106 % of control | [24] 106 % of control | dose: 400.0 mg/kg/injection, schedule: Q04DX002 (ip), vehicle: saline with Tween-80 98 % of control

C=CCC(B1OCCO1)B1OCCO1
inactive: dose: 100.0 mg/kg/injection, schedule: Q04DX003 (ip), vehicle: saline sonified 106 % of control | dose: 200.0 mg/kg/injection, schedule: Q04DX003 (ip), vehicle: saline sonified 95 % of control | dose: 400.0 mg/kg/injection, schedule: Q04DX003 (ip), vehicle: saline sonified 110 % of control

Cc1ccnc(NC(=O)Nc2ccccc2F)c1
inactive: [6] 97 % of control and 106 % of control | [10] 92 % of control | [1] 95 % of control | [7] 101 % of control | [16] 96 % of control | [2] 101 % of control | [8] 97 % of control and 88 % of control | [18] 91 % of control | [25] 101 % of control

CN(C)Cc1c(O)ccc2ccccc12
inactive: [23] 100 % of control | [24] 90 % of control

Cc1c(-c2nc(SCC(=O)NN)n[nH]2)no[n+]1[O-]
inactive: dose: 25.0 mg/kg/injection, schedule: Q04DX002 (ip), vehicle: Klucel (hydroxypropylcellulose) (HPC) 102 % of control | dose: 50.0 mg/kg/injection, schedule: Q04DX002 (ip), vehicle: Klucel (hydroxypropylcellulose) (HPC) 91 % of control | [14] 98 % of control

O=C1OC(=O)c2ccc(S)c3cccc1c23
inactive: [9] 96 % of control | [10] 102 % of control | [16] 94 % of control and 101 % of control

COc1ccccc1-n1c(O)c(N=Nc2ccccc2)c(=O)n(-c2ccc(C)cc2)c1=S
inactive: [20] 100 % of control | [21] 98 % of control | [22] 102 % of control

CCCC1(CCC)OOC(CCC)(CCC)OO1
inactive: [9] 96 % of control | [10] 96 % of control | [16] 110 % of control

CN(CCN(CCCl)c1ccc(N)cc1)c1ccc(N)cc1
inactive: dose: 10.0 mg/kg/injection, schedule: Q04DX003 (ip), vehicle: saline 110 % of control | dose: 20.0 mg/kg/injection, schedule: Q04DX003 (ip), vehicle: saline 110 % of control | dose: 40.0 mg/kg/injection, schedule: Q04DX003 (ip), vehicle: saline 93 % of control

O=c1ccn(-c2ccccc2)c(=S)[nH]1
inactive: dose: 100.0 mg/kg/injection, schedule: Q01DX001 (ip), vehicle: saline with Tween-80 96 % of control | [10] 95 % of control | dose: 200.0 mg/kg/injection, schedule: Q01DX001 (ip), vehicle: saline with Tween-80 96 % of control | [16] 95 % of control | dose: 400.0 mg/kg/injection, schedule: Q01DX001 (ip), vehicle: saline with Tween-80 100 % of control

COCC1OC1(C(=O)c1ccccc1Cl)c1ccccc1Cl (centres undefined)
inactive: [6] 107 % of control | [7] 100 % of control | [8] 96 % of control

CC(=C=CC(c1ccccc1)(c1ccccc1)c1ccccc1)CC(c1ccccc1)(c1ccccc1)c1ccccc1
inactive: [21] 96 % of control | [22] 95 % of control | dose: 400.0 mg/kg/injection, schedule: Q04DX003 (ip), vehicle: Klucel (hydroxypropylcellulose) (HPC) 95 % of control

CC(C)/C=N/N(C)C(=O)Nc1cccc2ccccc12
inactive: dose: 50.0 mg/kg/injection, schedule: Q01DX001 (ip), vehicle: carboxymethylcellulose (CMC) 97 % of control | [3] 94 % of control | [4] 94 % of control | [5] 90 % of control

c1ccc(-c2nc3ccccn3n2)cc1
inactive: [11] 101 % of control | [12] 95 % of control | [13] 103 % of control

CCOC(=O)c1cccc([N+](=O)[O-])c1I
inactive: [1] 93 % of control | [2] 95 % of control | [25] 96 % of control
